This note sets out measurements from PubChem BioAssay (NCI).

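In this assay, cells in 96-well plates receive the compound at five concentrations for 48 hours. Endpoints are linearly interpolated between the surrounding concentrations. TGI: total growth inhibition.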

Some test systems named below: NCI-H460 lung; SK-OV-3 ovarian; SF-539 CNS; NCI-H23 lung; EKVX NSCLC; CCRF-CEM leukemia; HCT-116 colon; HOP-92 NSCLC; T-47D breast; HS 578T breast; TK-10 renal.
Assay in all cases: inhibition of tumour cell growth, NCI panel, 48 h

Turning to `COC1OC(Cc2nnc(C)o2)C(OCc2ccccc2)C(OCc2ccccc2)C1OCc1ccccc1` (centres undefined), the TGI in the assay on NCI-H460 lung is 87 µM; in the assay with SK-OV-3 ovarian, above 100 µM; in the assay on SF-539 CNS it was above 100 µM; with NCI-H23 lung, 56 µM; with EKVX NSCLC it was 35.5 µM; in the assay on CCRF-CEM leukemia, 52.7 µM. Moreover, the TGI in the assay on HCT-116 colon, with HOP-92 NSCLC, in the assay on T-47D breast and in the assay with HS 578T breast was above 100 µM throughout.
On to `O=[N+]([O-])c1ccc(S[C@@H]2[C@H]3c4c(-c5ccccc5)[nH]c(-c5ccccc5)c4[C@@H]2C[C@H]3Cl)cc1`, for which the TGI in the assay on NCI-H460 lung was 12.9 µM; in the assay on SK-OV-3 ovarian, above 100 µM; in the assay on SF-539 CNS, above 100 µM; in the assay on TK-10 renal it was above 100 µM; in the assay on NCI-H23 lung it was 8.91 µM; in the assay with HCT-116 colon it was 7.86 µM. Moreover, the results for the TGI in the assay on HOP-92 NSCLC, in the assay with T-47D breast and with HS 578T breast were above 100 µM, 8.67 µM and 72.2 µM, respectively.
`CCc1c(Cc2cccc3ccccc23)n2c(nc1=O)SCC2OCCO` (centres undefined): the TGI in the assay on NCI-H460 lung was above 100 µM; in the assay on SF-539 CNS it was above 100 µM; in the assay with TK-10 renal it was above 100 µM; in the assay with NCI-H23 lung it was above 100 µM; in the assay on EKVX NSCLC, above 100 µM; with CCRF-CEM leukemia, 74 µM. Further, the TGI in the assay on HCT-116 colon is above 100 µM; with HOP-92 NSCLC, 34.7 µM; in the assay on T-47D breast it was above 100 µM; in the assay with HS 578T breast, above 100 µM.
Turning to `CCOC(=O)C1(C(=O)OCC)[C@H](c2ccccc2)C2=NO[C@@H]3CCC[C@H]1[C@H]23`, the TGI with NCI-H460 lung, in the assay on SK-OV-3 ovarian, in the assay on SF-539 CNS, with TK-10 renal, in the assay with NCI-H23 lung and in the assay with EKVX NSCLC was above 100 µM throughout. Further, the TGI in the assay on CCRF-CEM leukemia, in the assay on HCT-116 colon, in the assay with HOP-92 NSCLC, in the assay with T-47D breast and in the assay with HS 578T breast was above 100 µM throughout.
Turning to `CCCCc1cc2c(C)cc(=O)oc2c(O)c1O`, the TGI in the assay with NCI-H460 lung was above 100 µM; in the assay with SF-539 CNS it was 47.4 µM; in the assay with TK-10 renal it was above 100 µM; in the assay with NCI-H23 lung, above 100 µM; in the assay on EKVX NSCLC it was above 100 µM; with CCRF-CEM leukemia, 56.3 µM. Also, the TGI in the assay on HCT-116 colon was found to be 96.1 µM; with HOP-92 NSCLC, 59.6 µM; in the assay on T-47D breast it was 82.3 µM; in the assay with HS 578T breast, 59.5 µM.
`Cc1cc(=O)n2nc(SCc3ccccc3)sc2n1`: the TGI with NCI-H460 lung, with SK-OV-3 ovarian, in the assay with SF-539 CNS, with TK-10 renal, in the assay with NCI-H23 lung and with CCRF-CEM leukemia was above 100 µM throughout. Also, the TGI in the assay with HCT-116 colon, in the assay on HOP-92 NSCLC, in the assay with T-47D breast and in the assay on HS 578T breast was above 100 µM throughout.
Take `O=C(CCN1CCCC1)Nc1ccc2sc3ccccc3c(=O)c2n1`: the TGI in the assay on SK-OV-3 ovarian was 14.3 µM; in the assay with SF-539 CNS, 18.1 µM; with NCI-H23 lung it was 22.9 µM; in the assay with EKVX NSCLC it was 20.1 µM; with CCRF-CEM leukemia it was 25.8 µM; in the assay with HCT-116 colon, 16.4 µM. In addition, the TGI is 60.4 µM in the assay on HOP-92 NSCLC, above 31.6 µM with T-47D breast and 18.2 µM in the assay with HS 578T breast.
Turning to `O=C(NCc1cccc(C(F)(F)F)c1)c1cc2sccc2nc1C(F)(F)F`, the TGI with SK-OV-3 ovarian, with SF-539 CNS, with TK-10 renal, in the assay on NCI-H23 lung, in the assay on EKVX NSCLC and with CCRF-CEM leukemia was above 100 µM each time. In addition, the TGI in the assay on HCT-116 colon was above 100 µM; in the assay with HOP-92 NSCLC it was above 100 µM; in the assay on T-47D breast, above 100 µM; in the assay with HS 578T breast, 94.1 µM.
With `CCNc1ccc2c(c1)Cc1ccccc1-2`, the TGI in the assay with NCI-H460 lung, with SF-539 CNS, in the assay on TK-10 renal, with NCI-H23 lung, in the assay with EKVX NSCLC and in the assay on CCRF-CEM leukemia was above 100 µM each time. Further, the TGI is above 100 µM in the assay with HCT-116 colon, 82.4 µM with HOP-92 NSCLC, above 100 µM in the assay with T-47D breast and above 100 µM in the assay on HS 578T breast.
For `N#Cc1nc(CCCCCN2C(=O)c3ccccc3C2=O)oc1N`, the TGI in the assay with NCI-H460 lung, with SK-OV-3 ovarian, in the assay on SF-539 CNS, in the assay on TK-10 renal, with NCI-H23 lung and in the assay with EKVX NSCLC was above 100 µM throughout. For the same molecule, the TGI was 74.5 µM in the assay on CCRF-CEM leukemia, above 100 µM in the assay on HCT-116 colon, above 100 µM in the assay with T-47D breast and above 100 µM with HS 578T breast.
On to `CCOC(=O)c1c(N2CCCC2)ncn(-c2ccccc2)c1=S`, for which the TGI in the assay with NCI-H460 lung, in the assay on SK-OV-3 ovarian, with SF-539 CNS, in the assay on TK-10 renal, with EKVX NSCLC and in the assay with CCRF-CEM leukemia was above 100 µM throughout. Further, the TGI in the assay with HCT-116 colon, in the assay on HOP-92 NSCLC, with T-47D breast and in the assay on HS 578T breast was above 100 µM throughout.
With `O=C1NC(=O)/C(=C/c2ccc(S(=O)(=O)N/N=C/c3ccc(Cl)cc3)cc2)N1`, the TGI in the assay with NCI-H460 lung, in the assay with SK-OV-3 ovarian, with TK-10 renal, with NCI-H23 lung, in the assay with EKVX NSCLC and in the assay on CCRF-CEM leukemia was above 100 µM each time. Besides, the TGI in the assay on HCT-116 colon, with HOP-92 NSCLC, with T-47D breast and in the assay with HS 578T breast was above 100 µM in each case.
Take `N#CC(C#N)=C1C(C#N)=C(N)NC12OCCO2`: the TGI in the assay on NCI-H460 lung, in the assay on SK-OV-3 ovarian, with TK-10 renal, in the assay with NCI-H23 lung, in the assay with EKVX NSCLC and in the assay with CCRF-CEM leukemia was above 100 µM in each case. The TGI in the assay with HCT-116 colon, in the assay on HOP-92 NSCLC, in the assay on T-47D breast and with HS 578T breast was above 100 µM each time.
